One assay relates to rat EAP model. Conditions: cited from earlier work.
The subject of assay [1] is carrageenan-induced rat prostatitis model. Nature of the assay: Carrageenan-induced rat prostatitis model: prostate weight assessment (prostate index). It is filed as in vivo. As to conditions: for prostate index (ratio of prostate gland wet weight/body weight): seven days after carrageenan, model group 2.15±0.30 mg/g. From the text:
(§1) Adult male Sprague-Dawley rats (250-350 g body weight) were used for the experiments. All animals were acclimated for 1 week before any experimental procedures.
(§2) All the SD rats were randomly divided into different groups (n=8-10): control group, model group, and compounds-treated groups. For injection of carrageenan or saline, rats were anesthetized with 4% chloral hydrate and were fixed in a supine position. Then, the lower abdomen above the penis of rats was shaved and the skin in this area sterilized using 3 applications of 75% medical alcohol. A small midline incision was made in the sterile area, then the bladder and the prostate carefully exposed. With a 30-gauge needle, 50 ul sterile suspension of 3% carrageenan (Sigma, MO, USA) or saline (sham group) was injected into both right and left ventral lobes of the prostate gland. Different doses of RIPA-56 (12.5 mg/kg, 25 mg/kg, IP) or Finasteride (5 mg/kg, PO) were administrated to rats before (−17 min) and after (once every 12 h) carrageenan injection. While an equal amount of solvents were intraperitoneally and orally injected to control rats.
Seven days after carrageenan injection, rats were sacrificed and the prostates were harvested. Ventral and dorsolateral lobes of prostate glands were removed by cutting the ducts at the urethral connection and weighed immediately after removal. The prostate index (ratio of prostate gland wet weight/body weight) was calculated.

The test system of assay [2] is carrageenan-induced male rat prostate disease model. In words: Carrageenan-induced male rat prostate disease model: representative RIP1, RIP3 and MLKL inhibitors. Type of assay: in vivo. Conditions: list after the methods of the example; protocols based on RIPA-56. Here is the method:
Experimental protocols for the compounds of Table 1 were based on those used for RIPA-56. Each inhibitor was intraperitoneally or orally administrated to rat before carrageenan treatment, at the dose of 20 mg/kg to 100 mg/kg.
Each inhibitor was intraperitoneally or orally administrated to rat before carrageenan treatment, at the dose of 20 mg/kg to 100 mg/kg.
as §2, with “Then, the lower abdomen above the penis of rats was shaved and the skin in this area sterilized using 3 applications of 75% medical alcohol.” left out, “Different doses of RIPA-56 (12.5 mg/kg, 25 mg/kg, IP) or Finasteride (5 mg/kg, PO) were administrated to rats before (−17 min) and after (once every 12 h) carrageenan injection.” left out

The subject of another assay is aged mice. Conditions: seminal vesicles, seminiferous tubules, sperm production, reproductive capacity; cited from earlier work.
Assay [3] deals with carrageenan-induced rat prostatitis model. In words: Carrageenan-induced rat prostatitis model: histological analysis of prostate (H & E). As to conditions: FIG. 1 C. Type of assay: in vivo.
Source text: as §1
as §2, with “While an equal amount of solvents were intraperitoneally and orally injected to control rats.” left out
For histological analysis, one part of the prostate was fixed in 10% neutral buffered formalin for 24 h, dehydrated in ethanol, cleared in xylene, and embedded in paraffin blocks. […] Each slide was evaluated randomly in 3 different areas by an independent investigator unaware of the animal grouping using a microscope.

Another assay deals with TNFα. Nature of the assay: Carrageenan-induced rat prostatitis model: TNFα in prostate homogenate (ELISA). Conditions: 25 mg/kg intraperitoneal B.I.D; per mg prostate homogenate protein; model 3.04±2.28, sham 0.52±0.26. It is filed as in vivo.
Source text: as §1
as §2, with “Different doses of RIPA-56 (12.5 mg/kg, 25 mg/kg, IP) or Finasteride (5 mg/kg, PO) were administrated to rats before (−17 min) and after (once every 12 h) carrageenan injection. While an equal amount of solvents were intraperitoneally and orally injected to control rats.” left out
Part of rat prostate were weighed, mixed with cell lysis buffer (500 μl buffer per 100 mg tissue) and homogenized using FastPrep-24 homogenizer (MP Biomedicals). […] The supernatant was collected, and the total protein concentration was measured with the Bradford protein assay method. […] The level of cytokines was determined using rat TNFα, IL-1β and IL-6 ELISA kit (Biolegend or ProteinTech), and normalized to prostate protein concentration.

In the case of `CCOc1ccccc1OCCN[C@H](C)Cc1ccc(OC)c(S(N)(=O)=O)c1` [tamsulosin], the anti-inflammatory efficacy result with rat EAP model was “partial anti-inflammatory efficacy”.
With `CC(C)(C)NC(=O)[C@H]1CC[C@H]2[C@@H]3CC[C@H]4NC(=O)C=C[C@]4(C)[C@H]3CC[C@]12C` [finasteride], the “decrease of the prostate index of carrageenan-treated rats” value in assay [1] (5 mg/kg orally B.I.D) turned out to be 23%.
Turning to `CCC(C)(C)C(=O)N(O)Cc1ccc(F)c(F)c1F` [N-Hydroxy-2,2-dimethyl-N-(2,3,4-trifluorobenzyl)butanamide], the “listed under heading Active RIP1 Inhibitors” value in assay [2] is “Active”.
As for `CCC(C)(C)C(=O)N(O)Cc1cc(F)c(F)c(F)c1` [N-Hydroxy-2,2-dimethyl-N-(3,4,5-trifluorobenzyl)butanamide], the “listed under heading Active RIP1 Inhibitors” value in assay [2] is recorded as “Active”.
With `C=CC(C)(C)C(=O)N1C(=O)C[C@H]1c1ccccc1` [(S)-1-(2,2-dimethylbut-3-enoyl)-4-phenylazetidin-2-one], in assay [2], the “listed under heading Active RIP1 Inhibitors” value is listed as “Active”.
`Cc1cccc2c(CC3NC(=O)N(C)C3=O)c[nH]c12` (centres unmarked) [3-methyl-5-((7-methyl-1H-indol-3-yl)methyl)imidazolidine-2,4-dione]: the “listed under heading Active RIP1 Inhibitors” value in assay [2] is recorded as “Active”.
Consider `Cn1c(=O)c2c(nc(S(C)(=O)=O)n2C)n(CC#N)c1=O` [TC13-107, 2-(1,7-dimethyl-8-(methylsulfonyl)-2,6-dioxo-1H-purin-3(2H,6H,7H)-yl)acetonitrile], for which the “listed under heading Active MLKL Inhibitors” value in assay [2] is listed as “Active”.
As to `CN(c1ccc(NC(=O)Nc2ccc(OC(F)(F)F)cc2)cc1)c1ccnc(Nc2cccc(S(N)(=O)=O)c2)n1` [Compound 1, 3-((4-(methyl(4-(3-(4-(trifluoromethoxy)phenyl)ureido)phenyl)amino)pyrimidin-2-yl)amino)benzenesulfonamide], in assay [2], the “listed under heading Active MLKL Inhibitors” value is “Active”.
In the case of `CCC(C)(C)C(=O)N(O)Cc1cc(F)cc(F)c1F` [N-Hydroxy-2,2-dimethyl-N-(2,3,5-trifluorobenzyl)butanamide], the “listed under heading Active RIP1 Inhibitors” value in assay [2] is “Active”.
With `CCC(C)(C)C(=O)N(O)Cc1ccccc1` [RIPA-56], the “prostate index (ratio of prostate gland wet weight/body weight)” value in assay [1] (12.5 mg/kg intraperitoneal B.I.D) stood at 1.99 ± 0.41 mg/g; in assay [1] (25 mg/kg intraperitoneal B.I.D), 1.82 ± 0.22 mg/g. The “inhibition to the prostate enlargement and edema” value in assay [1] (12.5 and 25 mg/kg intraperitoneal B.I.D) is reported as “dose-dependent inhibition”. The “protection of aged mice from reproductive system aging” value in the assay with aged mice is recorded as “can protect aged mice from seminal vesicles enlargement”. In addition, the “inflammatory response in the prostate (histopathology)” value in assay [3] (RIPA-56 treated rats vs disease-model group) is “less severe than the disease-model group”. For the same compound, the “inflammatory cells in the interstitial space (histopathology)” value in assay [3] (RIPA-56 treated rats) is “Only few inflammatory cells”. In addition, the “TNFα level in the prostate homogenate” value in the assay on TNFα was 1.02 ± 0.37 pg/mg.
Consider `CCC(C)(C)C(=O)N(O)Cc1ccccc1` [N-Benzyl-N-hydroxy-2,2-dimethylbutanamide], for which the “listed under heading Active RIP1 Inhibitors” value in assay [2] is on record as “Active”.

The values above are taken from patent US20220288077A1, “PROSTATITIS TREATMENT” (NATIONAL INSTITUTE OF BIOLOGICAL SCIENCES, priority 2019, published 2022).
